Measurements published in patent publication US20140093498A1, “PHARMACEUTICAL COMBINATIONS COMPRISING DUAL ANGIOPOIETIN-2 / DLL4 BINDERS AND ANTI-VEGF-R AGENTS” (BOEHRINGER INGELHEIM INTERNATIONAL GMBH, priority 2012, published 2014).

Legend:
[1] = Body weight losses and deaths in PDX tumor-bearing mice; parameters: species or system nude mice; conditions: mouse, in vivo
Experimental: Tumor diameters were measured twice weekly with a caliper. The volume of each tumor [in mm^3] was calculated according to the formula “tumor volume=length*diameter^2*0.5.” To monitor side effects of treatment, mice were inspected daily for abnormalities and body weight was determined twice weekly. Animals with tumor sizes exceeding 1.5 cm in diameter or 20% body weight loss were euthanized for ethical reasons.

[2] = tested on: human non small cell lung cancer (LXFE 1422); test: LXFE 1422 patient-derived tumor xenograft growth in nude mice; assay type: in vivo; conditions: BI-1 13.6 mg/kg i.p. twice weekly, BIBF1120 50 mg/kg p.o. once daily, Bevacizumab 15 mg/kg i.p. twice weekly
Excerpt: (§1) The goal of the present study was to assess the efficacy of BI-1 in combination with Bevacizumab, BIBF1120 or Sunitinib in models of human non small cell lung cancer (LXFE 211, LXFE 1422), colon cancer (CXF 243), mammary cancer (MAXF 401), ovarian cancer (OVXF 1353), pancreatic cancer (PAXF 546) and renal cancer (RXF 1220) in nude mice. All models were patient-derived tumor xenografts (PDX), which were transplanted from patients to nude mice and passaged subcutaneously. These models retain most of the characteristics of the parental patient tumors including histology.
(§2) BI-1 with the sample ID number D11B20V503 was used for this experiment and diluted with PBS. BIBF1120 with the batch chiffre 133562 was suspended in Natrosol 0.5% (Hydroxyethylcellulose Natrosol 250 HX, VWR). […]
(§3) Tumor fragments were obtained from tumor xenografts in serial passage in nude mice. […] Mice were monitored daily. […]
(§4) The doses of BI-1 and Bevacizumab were calculated to the average body weight of all mice on day 1 (28 g) and administered intraperitoneally twice weekly in a volume of 100 μl per mouse. […]
(§5) Tumor diameters were measured twice weekly with a caliper. The volume of each tumor [in mm^3] was calculated according to the formula “tumor volume=length*diameter^2*0.5.” To monitor side effects of treatment, mice were inspected daily for abnormalities and body weight was determined twice weekly. […]

[3] = tested on: pancreatic cancer (PAXF 546); test: PAXF 546 patient-derived tumor xenograft growth in nude mice; assay type: in vivo; conditions: BI-1 13.6 mg/kg i.p. twice weekly, BIBF1120 50 mg/kg p.o. once daily, Bevacizumab 15 mg/kg i.p. twice weekly
Excerpt: as §1, §2, §3, §4, §5

[4] = tested on: ovarian cancer (OVXF 1353); test: OVXF 1353 patient-derived tumor xenograft growth in nude mice; assay type: in vivo; conditions: BI-1 13.6 mg/kg i.p. twice weekly, BIBF1120 50 mg/kg p.o. once daily
Excerpt: as §1, §2, §3, §4, §5

[5] = tested on: mammary cancer (MAXF 401); test: MAXF 401 patient-derived tumor xenograft growth in nude mice; assay type: in vivo; conditions: BI-1 13.6 mg/kg i.p. twice weekly, BIBF1120 50 mg/kg p.o. once daily, Bevacizumab 15 mg/kg i.p. twice weekly
Excerpt: as §1, §2, §3, §4, §5

[6] = tested on: human non small cell lung cancer (LXFE 211); test: LXFE 211 patient-derived tumor xenograft growth in nude mice; assay type: in vivo; conditions: BI-1 13.6 mg/kg i.p. twice weekly, BIBF1120 50 mg/kg p.o. once daily, Bevacizumab 15 mg/kg i.p. twice weekly
Excerpt: as §1, §2, §3, §4, §5

colon cancer (CXF 243) = test: CXF 243 patient-derived tumor xenograft growth in nude mice; assay type: in vivo; conditions: BI-1 13.6 mg/kg i.p. twice weekly, BIBF1120 50 mg/kg p.o. once daily, Bevacizumab 15 mg/kg i.p. twice weekly
Excerpt: as §1, §2, §3, §4, §5

[7] = tested on: human non-small cell lung cancer (NCI-H1975); test: Subcutaneous NCI-H1975 xenograft tumor growth in nude mice; assay type: in vivo; conditions: day 14, 2.5 cycles; Bevacizumab 25 mg/kg i.p. twice weekly, BIBF 1120 50 mg/kg p.o. daily, BI-1 13.6 mg/kg i.p. twice weekly
Excerpt: The goal of the present study was to assess the efficacy of BI-1 in combination with Bevacizumab and BIBF 1120 in a model of human non small cell lung cancer (NCI-H1975) in nude mice.
• Model: Subcutaneous xenografts of the human non-small cell lung cancer (NCI-H1975) growing in nude mice
BI-1 with the sample ID number D11B20V503 was used for this experiment and diluted with PBS. BIBF 1120 with the batch chiffre 133562 was suspended in Natrosol 0.5% (Hydroxyethylcellulose Natrosol 250 HX, VWR).
Avastin® (Bevacizumab, 25 mg/ml) was purchased from Roche (Basel, Switzerland), (dissolved in 0.9% saline) was diluted with 0.9% saline.
Mice were 7 week-old female BomTac:NMRI-Foxn1nu purchased from Taconic, Denmark. After arrival, mice were allowed to adjust to ambient conditions for at least 5 days before they were used for the experiments. […]
as §4
Tumor diameters were measured three times a week (Monday, Wednesday and Friday) with a caliper. The volume of each tumor [in mm3] was calculated according to the formula “tumor volume=length*diameter2*π/6.” To monitor side effects of treatment, mice were inspected daily for abnormalities and body weight was determined three times a week (Monday, Wednesday and Friday). […]

renal cancer (RXF 1220) = test: RXF 1220 patient-derived tumor xenograft growth in nude mice; assay type: in vivo; conditions: BI-1 13.6 mg/kg i.p. twice weekly, Sunitinib 40 mg/kg once daily, Bevacizumab 15 mg/kg i.p. twice weekly
Excerpt: as §1, §2, §3, §4, §5

Molecule | maximum median body weight loss [1] [%] | TGI [%] [2] [%] | TGI [%] [3] [%] | TGI [%] [4] [%] | TGI [%] [5] [%] | TGI [%] [6] [%] | TGI [%] (colon cancer (CXF 243)) | median TGI [7] [%] | TGI [%] (renal cancer (RXF 1220))
CCS(=O)(=O)O.COC(=O)c1ccc2c(c1)NC(=O)/C2=C(\Nc1ccc(N(C)C(=O)CN2CCN(C)CC2)cc1)c1ccccc1 [BIBF1120, 3-Z-[1-(4-(N-((4-methyl-piperazin-1-yl)-methylcarbonyl)-N-methyl-amino)-anilino)-1-phenyl-methylen]-6-methoxycarbonyl-2-indolinon-monoethanesulfonate] | 5.9 | 57 | 69 | 78 | 63 | 40 | 65 | 75 | 
CCN(CC)CCNC(=O)c1c(C)[nH]c(/C=C2\C(=O)Nc3ccc(F)cc32)c1C [Sunitinib] |  |  |  |  |  |  |  |  | 62
Bevacizumab: VEGF-neutralizing antibody A4.6.1, also called bevacizumab (Avastin®) | 9.1 | 63 | 59 |  | 68 | 37 |  | 82 | 
